Measurements: patent US11034672B1, “Tyrosine kinase inhibitor compositions, methods of making and methods of use” (Black Diamond Therapeutics, Inc., priority 2018, dated 2021)

Assays:
Assay type in all cases: cell-based
EGFR WT [1] = molecular target: T1, EGFR WT (Homo sapiens, UniProt P00533); assay: Activity for inhibiting EGFR (Table A), EGFR WT; settings: read-out: EGFR WT, potency code (IC50)
EGFR V3 [2] = molecular target: T2, EGFR V3 (Homo sapiens, UniProt P00533, DELINS30-297G); assay: Activity for inhibiting EGFR (Table A), EGFR V3 (EGFR-Viii); settings: read-out: EGFR V3, potency code (IC50)
T2 construct: expressed in transfected cells; host or cells: BaF3 (murine pro-B), retroviral pMXs-IRES-Blasticidin
T2 sequence (P00533 with tags, fused parts or gaps DELINS30-297G): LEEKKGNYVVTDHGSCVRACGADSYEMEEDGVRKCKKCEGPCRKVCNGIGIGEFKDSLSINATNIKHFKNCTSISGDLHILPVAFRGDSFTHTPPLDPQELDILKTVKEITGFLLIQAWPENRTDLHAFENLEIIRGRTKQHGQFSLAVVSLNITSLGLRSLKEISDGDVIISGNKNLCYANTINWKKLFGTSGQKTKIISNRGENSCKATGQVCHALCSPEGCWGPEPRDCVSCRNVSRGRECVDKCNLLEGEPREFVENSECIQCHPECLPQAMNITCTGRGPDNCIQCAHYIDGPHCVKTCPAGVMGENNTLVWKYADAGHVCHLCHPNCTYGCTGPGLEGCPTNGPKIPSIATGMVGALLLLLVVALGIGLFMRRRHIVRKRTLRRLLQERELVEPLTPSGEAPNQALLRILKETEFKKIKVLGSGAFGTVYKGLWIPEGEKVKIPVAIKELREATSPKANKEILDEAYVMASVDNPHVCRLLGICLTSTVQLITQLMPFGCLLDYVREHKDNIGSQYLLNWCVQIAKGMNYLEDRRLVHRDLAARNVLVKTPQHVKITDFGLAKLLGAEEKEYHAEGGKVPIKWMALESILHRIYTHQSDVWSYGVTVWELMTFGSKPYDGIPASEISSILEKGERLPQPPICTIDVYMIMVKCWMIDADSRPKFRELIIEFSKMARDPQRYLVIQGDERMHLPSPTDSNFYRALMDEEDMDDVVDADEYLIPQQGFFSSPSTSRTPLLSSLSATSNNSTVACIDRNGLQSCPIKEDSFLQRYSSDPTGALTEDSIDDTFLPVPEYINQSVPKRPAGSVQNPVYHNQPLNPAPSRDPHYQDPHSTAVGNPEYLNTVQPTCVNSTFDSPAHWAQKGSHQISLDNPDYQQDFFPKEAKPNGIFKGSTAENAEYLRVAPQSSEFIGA

HER2 S310F [3] = molecular target: T3, HER2 S310F (Homo sapiens, UniProt P04626, S310F); assay: Activity for inhibiting HER2 (Table B), HER2 S310F; settings: read-out: HER2 S310F, potency code (IC50)
T3 construct: expressed in transfected cells; host or cells: BaF3 (murine pro-B)
T3 sequence (P04626 23-1255 S310F): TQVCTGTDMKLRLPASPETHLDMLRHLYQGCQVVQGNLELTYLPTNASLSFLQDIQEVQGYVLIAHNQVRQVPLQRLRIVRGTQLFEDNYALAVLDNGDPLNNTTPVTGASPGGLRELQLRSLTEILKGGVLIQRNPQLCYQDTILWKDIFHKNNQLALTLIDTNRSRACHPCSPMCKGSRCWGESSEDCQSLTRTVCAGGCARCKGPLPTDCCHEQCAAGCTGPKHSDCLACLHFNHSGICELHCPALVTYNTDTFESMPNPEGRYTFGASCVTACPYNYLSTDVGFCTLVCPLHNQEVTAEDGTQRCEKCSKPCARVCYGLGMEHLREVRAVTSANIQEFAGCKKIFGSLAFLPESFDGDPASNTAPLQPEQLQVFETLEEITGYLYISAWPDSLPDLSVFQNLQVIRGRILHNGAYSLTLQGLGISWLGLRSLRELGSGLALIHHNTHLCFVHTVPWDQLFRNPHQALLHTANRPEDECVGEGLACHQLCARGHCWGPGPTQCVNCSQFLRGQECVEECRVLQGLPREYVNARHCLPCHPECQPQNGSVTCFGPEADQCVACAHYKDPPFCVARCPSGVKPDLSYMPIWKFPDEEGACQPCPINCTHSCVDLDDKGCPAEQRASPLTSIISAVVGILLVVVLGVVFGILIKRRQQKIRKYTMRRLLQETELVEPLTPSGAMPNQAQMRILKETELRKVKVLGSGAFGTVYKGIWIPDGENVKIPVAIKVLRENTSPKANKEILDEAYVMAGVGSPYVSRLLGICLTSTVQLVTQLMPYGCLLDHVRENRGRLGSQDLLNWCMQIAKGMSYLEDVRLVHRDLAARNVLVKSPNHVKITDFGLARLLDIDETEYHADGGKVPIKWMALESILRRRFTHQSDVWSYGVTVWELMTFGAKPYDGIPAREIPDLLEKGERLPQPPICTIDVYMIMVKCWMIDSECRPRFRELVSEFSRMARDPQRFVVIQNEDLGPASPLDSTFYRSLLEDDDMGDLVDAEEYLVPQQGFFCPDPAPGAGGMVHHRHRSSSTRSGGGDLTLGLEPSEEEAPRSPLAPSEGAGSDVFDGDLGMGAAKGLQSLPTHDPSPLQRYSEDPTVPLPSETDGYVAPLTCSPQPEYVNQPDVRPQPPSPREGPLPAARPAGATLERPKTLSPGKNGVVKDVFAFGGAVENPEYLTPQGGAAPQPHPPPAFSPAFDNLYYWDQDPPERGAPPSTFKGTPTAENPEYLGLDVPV
Protocol: (§1) EC50 values were determined with the same application.

HER2 YVMA [4] = molecular target: T4, HER2 YVMA (Homo sapiens, UniProt P04626, INS775YVMA); assay: Activity for inhibiting HER2 (Table B), HER2 YVMA; settings: read-out: HER2 YVMA, potency code (IC50)
T4 construct: expressed in transfected cells; host or cells: BaF3 (murine pro-B)
T4 sequence (P04626 with tags, fused parts or gaps INS775YVMA): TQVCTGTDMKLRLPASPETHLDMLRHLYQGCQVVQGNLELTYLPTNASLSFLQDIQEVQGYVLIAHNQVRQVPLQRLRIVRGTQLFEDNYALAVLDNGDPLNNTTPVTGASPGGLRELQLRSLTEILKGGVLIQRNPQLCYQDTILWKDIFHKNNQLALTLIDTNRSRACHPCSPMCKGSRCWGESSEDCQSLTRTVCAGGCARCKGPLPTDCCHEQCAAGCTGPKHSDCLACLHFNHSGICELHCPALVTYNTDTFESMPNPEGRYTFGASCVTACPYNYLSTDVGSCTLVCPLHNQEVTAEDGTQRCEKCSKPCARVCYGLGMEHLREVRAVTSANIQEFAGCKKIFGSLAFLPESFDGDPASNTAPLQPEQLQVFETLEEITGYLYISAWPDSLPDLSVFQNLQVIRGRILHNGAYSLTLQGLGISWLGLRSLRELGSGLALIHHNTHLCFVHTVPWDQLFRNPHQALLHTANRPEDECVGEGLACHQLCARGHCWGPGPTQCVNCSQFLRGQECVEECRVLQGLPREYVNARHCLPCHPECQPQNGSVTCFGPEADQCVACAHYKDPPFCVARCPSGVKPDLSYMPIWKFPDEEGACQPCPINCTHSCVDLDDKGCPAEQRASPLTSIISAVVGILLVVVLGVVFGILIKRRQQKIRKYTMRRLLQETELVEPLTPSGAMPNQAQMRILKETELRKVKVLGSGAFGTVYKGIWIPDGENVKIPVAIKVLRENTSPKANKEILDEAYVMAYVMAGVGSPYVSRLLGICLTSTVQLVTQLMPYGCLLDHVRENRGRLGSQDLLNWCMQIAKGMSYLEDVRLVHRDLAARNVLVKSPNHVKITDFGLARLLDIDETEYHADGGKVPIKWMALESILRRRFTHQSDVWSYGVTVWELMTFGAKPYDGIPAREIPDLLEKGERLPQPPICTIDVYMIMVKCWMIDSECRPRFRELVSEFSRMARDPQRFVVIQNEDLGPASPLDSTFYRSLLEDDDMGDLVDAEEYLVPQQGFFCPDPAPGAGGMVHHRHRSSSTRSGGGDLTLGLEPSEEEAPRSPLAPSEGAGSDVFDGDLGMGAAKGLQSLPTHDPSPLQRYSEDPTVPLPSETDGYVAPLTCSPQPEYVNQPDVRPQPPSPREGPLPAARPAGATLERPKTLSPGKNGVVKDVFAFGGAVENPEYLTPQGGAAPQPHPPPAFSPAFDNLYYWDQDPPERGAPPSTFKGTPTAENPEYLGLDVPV
Protocol: as §1

EGFR WT [5] = molecular target: T1, EGFR WT; assay: BaF3 cell proliferation assay, EGFR WT (Table A); settings: potency code, 3 days, CellTiterGlo, read-out: EGFR WT (Activity for Inhibiting EGFR)
Protocol: (§2) Retroviral Production: EGFR mutants were subcloned into pMXs-IRES-Blasticidin (RTV-016, Cell Biolabs, San Diego, Calif.). Retroviral expression vector retrovirus was produced by transient transfection of HEK 293T cells with the retroviral EGFR mutant expression vector pMXs-IRES-Blasticidin (RTV-016, Cell Biolabs), pCMV-Gag-Pol vector and pCMV-VSV-G-Envelope vector. Briefly, HEK 293T/17 cells were plated in 100 mm collagen coated plate (354450, Corning Life Sciences, Tewksbury, Mass.) (4×10^5 per plate) and incubated overnight. The next day, retroviral plasmids (3 μg of EGFR mutant, 1.0 μg of pCMV-Gag-Pol and 0.5 μg pCMV-VSV-G) were mixed in 500 μl of Optimem (31985, Life Technologies). The mixture was incubated at room temperature for 5 min and then added to Optimem containing transfection reagent Lipofectamine (11668, Invitrogen) and incubated for 20 minutes. Mixture was then added dropwise to HEK 293T cells. The next day the medium was replaced with fresh culture medium and retrovirus was harvested @ 24 and 48 hrs.
(§3) Generation of EGFR mutant stable cell lines: BaF3 cells (1.5E5 cells) were infected with 1 ml of viral supernatant supplemented with 8 μg/ml polybrene by centrifuging for 30 min at 1000 rpm. Cells were placed in a 37° C. incubator overnight. Cells were then spun for 5 minutes to pellet the cells. Supernatant was removed and cells re-infected a fresh 1 ml of viral supernatant supplemented with 8 μg/ml polybrene by centrifuging for 30 min at 1000 rpm. Cells were placed in 37° C. incubator overnight. […] After 48 hours cells were selected for retroviral infection in 10 μg/ml Blasticidin for one week. Blasticidin resistant populations were washed twice in phosphate buffered saline before plating in media lacking IL-3 to select for IL-3 independent growth.
as §1

EGFR V3 [6] = molecular target: T2, EGFR V3; assay: BaF3 cell proliferation assay, EGFR V3 (Table A); settings: potency code, 3 days, CellTiterGlo, read-out: EGFR V3 (Activity for Inhibiting EGFR)
Protocol: as §2, §3, §1

HER2 S310F [7] = molecular target: T3, HER2 S310F; assay: BaF3 cell proliferation assay, HER2 S310F (Table B); settings: potency code, 3 days, CellTiterGlo, read-out: HER2 S310F (Activity for Inhibiting HER2)
HER2 YVMA [8] = molecular target: T4, HER2 YVMA; assay: BaF3 cell proliferation assay, HER2 YVMA (Table B); settings: potency code, 3 days, CellTiterGlo, read-out: HER2 YVMA (Activity for Inhibiting HER2)

T1 sequence (P00533 25-1210 N540K): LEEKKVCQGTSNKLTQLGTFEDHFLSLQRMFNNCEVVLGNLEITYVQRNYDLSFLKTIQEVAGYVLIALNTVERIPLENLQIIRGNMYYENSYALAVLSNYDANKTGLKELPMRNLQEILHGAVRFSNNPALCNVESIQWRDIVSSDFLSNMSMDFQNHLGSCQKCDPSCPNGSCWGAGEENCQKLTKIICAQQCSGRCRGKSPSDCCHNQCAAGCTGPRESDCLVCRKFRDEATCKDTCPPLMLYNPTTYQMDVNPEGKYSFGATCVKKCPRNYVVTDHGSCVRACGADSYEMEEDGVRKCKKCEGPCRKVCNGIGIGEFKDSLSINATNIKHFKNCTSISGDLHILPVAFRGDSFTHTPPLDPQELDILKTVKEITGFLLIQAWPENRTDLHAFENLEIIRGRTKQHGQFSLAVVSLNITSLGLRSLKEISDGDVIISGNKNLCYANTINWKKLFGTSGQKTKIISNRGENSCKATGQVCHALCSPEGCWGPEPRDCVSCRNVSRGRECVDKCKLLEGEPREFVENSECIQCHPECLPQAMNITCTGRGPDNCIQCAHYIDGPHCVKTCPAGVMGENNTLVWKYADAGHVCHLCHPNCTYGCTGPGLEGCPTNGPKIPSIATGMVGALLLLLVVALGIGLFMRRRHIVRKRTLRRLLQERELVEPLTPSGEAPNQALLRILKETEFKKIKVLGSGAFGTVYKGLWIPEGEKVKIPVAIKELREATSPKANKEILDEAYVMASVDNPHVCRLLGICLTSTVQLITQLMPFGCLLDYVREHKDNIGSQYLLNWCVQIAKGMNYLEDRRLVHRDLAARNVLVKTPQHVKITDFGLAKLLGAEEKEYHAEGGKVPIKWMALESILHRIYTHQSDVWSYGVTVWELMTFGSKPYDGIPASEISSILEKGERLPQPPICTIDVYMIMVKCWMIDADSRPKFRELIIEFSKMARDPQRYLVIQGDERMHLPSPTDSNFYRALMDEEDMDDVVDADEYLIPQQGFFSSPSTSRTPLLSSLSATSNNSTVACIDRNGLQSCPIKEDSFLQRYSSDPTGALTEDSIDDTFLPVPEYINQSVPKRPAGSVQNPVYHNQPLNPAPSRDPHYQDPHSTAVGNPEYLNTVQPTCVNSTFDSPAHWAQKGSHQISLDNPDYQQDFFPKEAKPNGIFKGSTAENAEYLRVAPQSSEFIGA

| Compound | IC50 (EGFR WT [1]) [µM] | IC50 (EGFR V3 [2]) [µM] | IC50 (HER2 S310F [3]) [µM] | IC50 (HER2 YVMA [4]) [µM] | IC50 (EGFR WT [5]) [µM] | IC50 (EGFR V3 [6]) [µM] | IC50 (HER2 S310F [7]) [µM] | IC50 (HER2 YVMA [8]) [µM] |
| --- | --- | --- | --- | --- | --- | --- | --- | --- |
| C=CC(=O)Nc1cc2c(Nc3ccc(OCc4cccc(F)c4)c(Cl)c3)ncnc2cc1OCCN1CCN(C)CC1 [compound 130] | 0.2 to 0.3 | 0.1 to 0.2 | 0.03 to 0.05 | 0.3 to 0.5 | 0.2 to 0.3 | 0.1 to 0.2 | 0.03 to 0.05 | 0.3 to 0.5 |
| C=CC(=O)Nc1cc2c(Nc3ccc(OCc4ccccn4)c(Cl)c3)ncnc2cc1C#CC12CCN(CC1)CC2 [compound 126, N-(4-((3-chloro-4-(pyridin-2-ylmethoxy)phenyl)amino)-7-(quinuclidin-4-ylethynyl)quinazolin-6-yl)acrylamide] | 0.3 to 0.5 | 0.03 to 0.05 | 0.03 to 0.05 | 0.05 to 0.1 | 0.3 to 0.5 | 0.03 to 0.05 | 0.03 to 0.05 | 0.05 to 0.1 |
| C=CC(=O)Nc1cc2c(Nc3ccc(Oc4ccccc4)c(Cl)c3)ncnc2cc1O[C@@H]1CCN(C)C1 [compound 91, (R)-N-(4-((3-chloro-4-phenoxyphenyl)amino)-7-((1-methylpyrrolidin-3-yl)oxy)quinazolin-6-yl)acrylamide] | 0.5 to 1 | 0.05 to 0.1 | 0.03 to 0.05 | 0.2 to 0.3 | 0.5 to 1 | 0.05 to 0.1 | 0.03 to 0.05 | 0.2 to 0.3 |
| C=CC(=O)Nc1cc2c(Nc3ccc(OCc4ccccn4)c(Cl)c3)ncnc2cc1OC1CCN(C)CC1 [compound 110, N-(4-((3-chloro-4-(pyridin-2-ylmethoxy)phenyl)amino)-7-((1-methylpiperidin-4-yl)oxy)quinazolin-6-yl)acrylamide] | 0.2 to 0.3 | 0.02 to 0.03 | 0.03 to 0.05 | 0.2 to 0.3 | 0.2 to 0.3 | 0.02 to 0.03 | 0.03 to 0.05 | 0.2 to 0.3 |
| C=CC(=O)Nc1cc2c(Nc3ccc(OCc4ccccn4)c(Cl)c3)ncnc2cc1C#CC1[C@H]2CNC[C@@H]12 (stereo partly drawn) [compound 105, N-(7-((1R,5S,6s)-3-azabicyclo[3.1.0]hexan-6-ylethynyl)-4-((3-chloro-4-(pyridin-2-ylmethoxy)phenyl)amino)quinazolin-6-yl)acrylamide] | 0.5 to 1 | 0.05 to 0.1 | 0.03 to 0.05 | 0.1 to 0.2 | 0.5 to 1 | 0.05 to 0.1 | 0.03 to 0.05 | 0.1 to 0.2 |
| CC#CC(=O)Nc1cc2c(Nc3ccc(Oc4ccccc4)cc3)ncnc2cc1C#C[C@@H]1[C@H]2CN(C)C[C@@H]12 [compound 108, N-(7-(((1R,5S,6s)-3-methyl-3-azabicyclo[3.1.0]hexan-6-yl)ethynyl)-4-((4-phenoxyphenyl)amino)quinazolin-6-yl)but-2-ynamide] | 0.5 to 1 | 0.1 to 0.2 | 0.05 to 0.1 | 0.5 to 1 | 0.5 to 1 | 0.1 to 0.2 | 0.05 to 0.1 | 0.5 to 1 |
| C=CC(=O)Nc1cc2c(Nc3ccc(OCc4ccccn4)c(Cl)c3)ncnc2cc1OCC12CCC(CC1)N2C [compound 122, N-(4-((3-chloro-4-(pyridin-2-ylmethoxy)phenyl)amino)-7-((7-methyl-7-azabicyclo[2.2.1]heptan-1-yl)methoxy)quinazolin-6-yl)acrylamide] | 0.5 to 1 | 0.05 to 0.1 | 0.1 to 0.2 | 0.5 to 1 | 0.5 to 1 | 0.05 to 0.1 | 0.1 to 0.2 | 0.5 to 1 |
| C=CC(=O)Nc1cc2c(Nc3ccc(OCc4cccc(OC(F)(F)F)n4)c(Cl)c3)ncnc2cc1OCCN1CCOCC1 [compound 24] | > 1 | 0.2 to 0.3 | 0.2 to 0.3 | 0.3 to 0.5 | > 1 | 0.2 to 0.3 | 0.2 to 0.3 | 0.3 to 0.5 |
